According to patent publication US9365605B2, “Cyclic nucleotide analogs” (priority 2010, dated 2016):
Where two headings read alike, the source gives them in different places.

Test system: Huh-7 cells containing the self-replicating, subgenomic HCV replicon with a stable luciferase (LUC) reporter
Test: HCV replicon assay (luciferase reporter, Bright-Glo)
Assay type: cell-based
Procedure: Huh-7 cells containing the self-replicating, subgenomic HCV replicon with a stable luciferase (LUC) reporter were cultured in Dulbecco's modified Eagle's medium (DMEM) containing 2 mM L-glutamine and supplemented with 10% heat-inactivated fetal bovine serum (FBS), 1% penicillin-streptomyocin, 1% nonessential amino acids, and 0.5 mg/mL G418.
Determination of 50% inhibitory concentration (EC50) of compounds in HCV replicon cells were performed by the following procedure. On the first day, 5,000 HCV replicon cells were plated per well in a 96-well plate. On the following day, test compounds were solubilized in 100% DMSO to 100× the desired final testing concentration. Each compound was then serially diluted (1:3) up to 9 different concentrations. Compounds in 100% DMSO are reduced to 10% DMSO by diluting 1:10 in cell culture media. The compounds were diluted to 10% DMSO with cell culture media, which were used to dose the HCV replicon cells in 96-well format. The final DMSO concentration was 1%. The HCV replicon cells were incubated at 37° C. for 72 hours. At 72 hours, cells were processed when the cells are still subconfluent. Compounds that reduce the LUC signal are determined by Bright-Glo Luciferase Assay (Promega, Madison, Wis.). % Inhibition was determined for each compound concentration in relation to the control cells (untreated HCV replicon) to calculate the EC50.
Compounds of Formula (I) are active in the replicon assay. The antiviral activity of exemplary compounds is shown in Table 5, where ‘A’ indicates an EC50<1 μM, ‘B’ indicates an EC50≧1 μM and <10 μM, and ‘C’ indicates an EC50≧10 μM and <100 μM.

| SMILES | EC50 (Hepatitis C virus, Huh-7, 72 h) [µM] | further results |
| --- | --- | --- |
| COc1nc(N)nc2c1ncn2[C@@H]1O[C@@H]2COP(=S)(OC)O[C@H]2[C@@]1(C)O (some centres unmarked) [Compound 1a, (Rp/Sp) 2′-C-methyl-6-O-methyl-guanosine-3′,5′-cyclic-O-methyl phosphorothioate] | < 1 | – |
| COP1(=O)O[C@H]2[C@@H](O)[C@H](n3cnc4c(N)ncnc43)O[C@@H]2[C@H](C)O1 (some centres unmarked) [Compound 8a] | – | EC50 (Hepatitis C virus, HCV replicon cells (Huh-7), 72 hours incubation, LUC signal, read-out: EC50): 10 to 100 µM |
| COP1(=S)OC[C@H]2O[C@@H](n3ccc(=O)[nH]c3=O)[C@](C)(O)[C@@H]2O1 (some centres unmarked) [Compound 10a, 1-(7-Hydroxy-2-methoxy-7-methyl-2-thioxo-tetrahydro-2l5-furo[3,2-d][1,3,2]dioxaphosphinin-6-yl)-1H-pyrimidine-2,4-dione] | 10 to 100 | – |
| CC(C)OP1(=S)OC[C@H]2O[C@@H](n3ccc(=O)[nH]c3=O)[C@](C)(O)[C@@H]2O1 (some centres unmarked) [Compound 11a, 1-(7-Hydroxy-2-isopropoxy-7-methyl-2-thioxo-tetrahydro-2l5-furo[3,2-d][1,3,2]dioxaphosphinin-6-yl)-1H-pyrimidine-2,4-dione] | 1 to 10 | – |
| COc1nc(N)nc2c1ncn2[C@@H]1O[C@@H]2COP(=O)(SCOC(=O)C(C)(C)C)O[C@H]2[C@@]1(C)O (some centres unmarked) [Compound 12a, 2′-C,O^6-Dimethylguanosine 3′,5′-cyclic O-pivaloyloxymethyl phosphorothioate] | – | EC50 (HCV replicon cells (Huh-7), 72 hours incubation, LUC signal, read-out: EC50): < 1 µM |
